Reference: PMC7321403, “Synthesis and In Vitro Cytotoxicity and Antibacterial Activity of Novel 1,2,3-Triazol-5-yl-Phosphonates” (Molecules, 2020)
Read-outs that look alike come from different tables or passages of the source.

Experiments:
[1] = system: HL-60 cells (human promyelocytic leukemia)
Method: (§4) Cells were purchased from the American Type Culture Collection (ATCC, Manassas, VA, USA). Human lung adenocarcinoma A549 cells were maintained in Dulbecco's Modified Eagle Medium (DMEM), while mouse fibroblast NIH/3T3 and human promyelocytic leukemia HL-60 cells were maintained in Roswell Park Memorial Institute 1640 medium (RPMI-1640) containing 10% FCS. Media were supplemented with 2 mM GlutaMAX, 100 U/mL penicillin, and 100 µg/mL streptomycin (Life Technologies, Carlsbad, California, USA). Cell cultures were maintained at 37 °C in a humidified incubator in an atmosphere of 5% CO2 (Sanyo, Japan).
(§5) Cytotoxicity of the synthesized molecules was determined on A549, NIH/3T3 and HL-60 cells using the fluorescent Resazurin assay as described previously [46].
(§6) Briefly, cells (A549 and NIH/3T3: 6000, HL-60: 120.000 cells/well) were seeded into 96-well plates (Corning Life Sciences) in media and incubated overnight. Test compounds were dissolved in three-fold amounts of dimethyl sulfoxide (DMSO). Cells were treated with an increasing concentration of test compounds (1–30 µM). […] Cell viability was determined after 72 h incubation. Resazurin reagent (Sigma-Aldrich) was added at a final concentration of 25 µg/mL. After a 2 h incubation at 37 °C in 5% CO2, fluorescence (530 nm excitation/580 nm emission) was recorded on a multimode microplate reader (Cytofluor4000, PerSeptive Biosytems). Viability was calculated with relation to untreated control cells and blank wells containing media without cells. […] A Student’s t test was performed for individual test compound concentrations with relation to untreated control cell viability values.

[2] = system: HL-60 cells (human promyelocytic leukemia); assay: In vitro cytotoxicity, fluorescent Resazurin assay
Method: as §4, §5, §6

[3] = system: B. subtilis-GFP; assay: Antibacterial activity on GFP producing Gram-positive bacteria (fluorimetry); assay type: cell-based, Bacillus subtilis; conditions: GFP fluorescence, 1–30 µM tested, mean ± SD
Method: (§1) Finally, the biological activity of the synthesized 1,2,3-triazol-5-yl-phosphonates (8, 11–26) was investigated. On the one hand, the antibacterial activity of the compounds was tested on GFP producing Gram-positive (Bacillus subtilis) and Gram-negative (Escherichia coli) bacterial cells. The GFP producing bacteria are an effective tool for screening for antibacterial activity since GFP signal measured via fluorimetry is proportional to the number of bacterial cells. Active compounds would kill bacterial cells, which results in the decrease in GFP fluorescence signal, therefore it is suitable for evaluating the antimicrobial effect of different agents. On the other hand, in vitro cytotoxicity assessments were performed on three different cell lines, such as human lung adenocarcinoma (A549), mouse fibroblast (NIH/3T3) as healthy cell line and human promyelocytic leukemia (HL-60). Table 3 contains the determined IC50 values in antimicrobial and cytotoxicity assays. According to the results, only modest antibacterial activity was detected against the more sensitive Bacillus subtilis strain.
(§2) All reagents were purchased from Sigma-Aldrich (Hungary, Budapest). E. coli-GFP and B. subtilis-GFP bacteria were grown in Lysogeny Broth (Luria-Bertani broth, LB, 10 g tryptone, 5 g yeast extract, 10 g/L NaCl, pH 7.0) medium overnight (ON) at 37 °C in an incubator with continuous shaking. The ON bacterial culture was diluted (E. coli-GFP: 1:10000, B. subtilis-GFP: 1:1000) in LB medium containing 10 µg/mL ampicillin. Two hundred microliters of diluted E. coli suspension per well were transferred to 96-well plates and different agents were added in the appropriate concentration, then incubated in a shaker (600 rpm) for 3 h at 37 °C. Test compounds were dissolved in 3-fold amounts of dimethyl sulfoxide (DMSO). […] For induction of the GFP expression IPTG (0.1 mM final concentration) was added to each well and incubated for 3 h at 37 °C.
(§3) The following incubation samples were centrifuged at 2750 rpm at room temperature (RT) for 5 min and washed twice with 200 µL PBS, with a centrifugation step between the two washes. After a third centrifugation step, the bacterial cells were suspended in 100 µL PBS. The number of bacteria was estimated according to the fluorimetric measurements. The fluorescence of the bacterial cells was measured by the Victor™ 1420 Multilabel Counter (Perkin Elmer, Waltham, MA, USA) at 485/535 nm for 1 sec per well controlled by Wallac 1420 Manager software. Each treatment was repeated in at least 2 wells per plate during the experiments. Percentage fluorescence intensity based on the quantity of E. coli-GFP cells was calculated using untreated control values as 100%. Error was represented by standard deviation (SD).

[4] = system: E. coli-GFP; assay: Antibacterial activity on GFP producing Gram-negative bacteria (fluorimetry); assay type: cell-based, Escherichia coli; conditions: GFP fluorescence, 1–30 µM tested, mean ± SD
Method: as §1, §2, §3

[5] = in vitro; conditions: human
Method: as §4, §5, §6

[6] = in vitro; conditions: mouse
Method: as §4, §5, §6

[7] = In vitro cytotoxicity, fluorescent Resazurin assay; conditions: human, HL-60 cells (human promyelocytic leukemia), In Vitro Cytotoxicity (IC50, µM) HL-60, 72 h incubation, 1–30 µM tested, mean ± SD
Method: as §4, §5, §6

[8] = in vitro; conditions: human, In Vitro Cytotoxicity (IC50, µM) HL-60, 72 h incubation, 1–30 µM tested, mean ± SD
Method: as §4, §5, §6

[9] = system: A549 cells (human lung adenocarcinoma)
Method: as §4, §5, §6

[10] = system: NIH/3T3 cells (mouse fibroblast)
Method: as §4, §5, §6

[11] = A549 cells (human lung adenocarcinoma)
[12] = NIH/3T3 cells (mouse fibroblast)
[13] = read-out: In Vitro Cytotoxicity (IC50, µM) HL-60, 72 h incubation, 1–30 µM tested, mean ± SD

| Molecule | IC50 ([3]; Bacillus subtilis) [µM] | IC50 ([4]; Escherichia coli) [µM] | IC50 at 72 h [5, 11] [µM] | IC50 at 72 h [6, 12] [µM] | IC50 at 72 h [7] [µM] | IC50 at 72 h [5] [µM] | IC50 at 72 h [6] [µM] | further results |
| --- | --- | --- | --- | --- | --- | --- | --- | --- |
| CC(C)C[C@H](NC(=O)[C@H](Cc1ccccc1)NC(=O)c1cnccn1)B(O)O [Bortezomib, reference compound] |  |  |  |  |  |  |  | In Vitro Cytotoxicity (IC50, µM) HL-60 [1]: 7.42 × 10^−3 2.60 × 10^−3 µM; IC50 ([2]; Homo sapiens, HL-60, 72 h, read-out: IC50 for HL60 (positive control), 72 h incubation, value in nM): 7.42 ± 2.6 nM |
| CCCCOP(=O)(OCCCC)c1c(-c2ccccc2)nnn1Cc1ccccc1 [Compound 8, Dibutyl (1-benzyl-4-phenyl-1,2,3-triazol-5-yl)phosphonate] | > 30 | > 30 | > 30 | 27.5 ± 1.4 | > 30 |  |  |  |
| COP(=O)(OC)c1c(-c2ccccc2)nnn1Cc1ccccc1 [Compound 11, Dimethyl (1-benzyl-4-phenyl-1,2,3-triazol-5-yl)phosphonate] | > 30 | > 30 |  |  |  | > 30 | > 30 | IC50 at 72 h [8]: > 30 µM |
| CCOP(=O)(OCC)c1c(-c2ccccc2)nnn1Cc1ccccc1 [Compound 12, Diethyl (1-benzyl-4-phenyl-1,2,3-triazol-5-yl)phosphonate] | > 30 | > 30 |  |  |  | > 30 | > 30 | IC50 at 72 h [8]: > 30 µM |
| CCCOP(=O)(OCCC)c1c(-c2ccccc2)nnn1Cc1ccccc1 [Compound 13, Dipropyl (1-benzyl-4-phenyl-1,2,3-triazol-5-yl)phosphonate] | 29.3 ± 1.2 | > 30 | > 30 | > 30 | 12.6 ± 1.7 |  |  |  |
| CC(C)OP(=O)(OC(C)C)c1c(-c2ccccc2)nnn1Cc1ccccc1 [Compound 14, Diisopropyl (1-benzyl-4-phenyl-1,2,3-triazol-5-yl)phosphonate] | > 30 | > 30 | > 30 | > 30 | > 30 |  |  |  |
| CCCCCOP(=O)(OCCCCC)c1c(-c2ccccc2)nnn1Cc1ccccc1 [Compound 15, Dipentyl (1-benzyl-4-phenyl-1,2,3-triazol-5-yl)phosphonate] | 23.9 ± 1 | > 30 | > 30 | 26.2 ± 1.1 | 15.4 ± 1.2 |  |  |  |
| COP(=O)(OC)c1c(-c2ccccc2)nnn1Cc1ccc(C)cc1 [Compound 16, Dimethyl [1-(4-methylbenzyl)-4-phenyl-1,2,3-triazol-5-yl]phosphonate] | > 30 | > 30 |  |  |  | > 30 | 19.8 ± 1.2 | IC50 at 72 h [8]: ~10 µM; IC50 [2, 13]: 11000 ± 1200 nM |
| CCOP(=O)(OCC)c1c(-c2ccccc2)nnn1Cc1ccc(C)cc1 [Compound 17, Diethyl [1-(4-methylbenzyl)-4-phenyl-1,2,3-triazol-5-yl]phosphonate] | > 30 | > 30 |  |  |  | > 30 | > 30 | IC50 at 72 h [8]: > 30 µM |
| CCCCOP(=O)(OCCCC)c1c(-c2ccccc2)nnn1Cc1ccc(C)cc1 [Compound 18, Dibutyl [1-(4-methylbenzyl)-4-phenyl-1,2,3-triazol-5-yl]phosphonate] | 18.2 ± 1 | > 30 | > 30 | > 30 | > 30 |  |  |  |
| CCCCOP(=O)(OCCCC)c1c(-c2ccccc2)nnn1Cc1ccccc1F [Compound 19, Dibutyl [1-(2-fluorobenzyl)-4-phenyl-1,2,3-triazol-5-yl]phosphonate] | 19.3 ± 1 | > 30 | > 30 | 27.5 ± 1.1 | 11.7 ± 1.2 |  |  |  |
| CCCCOP(=O)(OCCCC)c1c(-c2ccccc2)nnn1Cc1cccc(F)c1 [Compound 20, Dibutyl [1-(3-fluorobenzyl)-4-phenyl-1,2,3-triazol-5-yl]phosphonate] | > 30 | > 30 | > 30 | > 30 | 15.4 ± 1.2 |  |  |  |
| CCCCOP(=O)(OCCCC)c1c(-c2ccccc2)nnn1Cc1ccc(F)cc1 [Compound 21, Dibutyl [1-(4-fluorobenzyl)-4-phenyl-1,2,3-triazol-5-yl]phosphonate] | 23.2 ± 1.1 | > 30 | > 30 | > 30 | 16.6 ± 1.3 |  |  |  |
| CCCCOP(=O)(OCCCC)c1c(-c2ccccc2)nnn1Cc1ccc(C(F)(F)F)cc1 [Compound 22, Dibutyl [1-(4-trifluoromethyl)-4-phenyl-1,2,3-triazol-5-yl]phosphonate] | > 30 | > 30 | > 30 | 23.1 ± 1.2 | ~10 |  |  | IC50 [2, 13]: 9700 ± 1100 nM |
| CCCCCCCCn1nnc(-c2ccccc2)c1P(=O)(OC)OC [Compound 23, Dimethyl (1-octyl-4-phenyl-1,2,3-triazol-5-yl)phosphonate] | > 30 | > 30 |  |  |  | > 30 | > 30 | IC50 at 72 h [8]: > 30 µM |
| CCCCCCCCn1nnc(-c2ccccc2)c1P(=O)(OCC)OCC [Compound 24, Diethyl (1-octyl-4-phenyl-1,2,3-triazol-5-yl)phosphonate] | > 30 | > 30 |  |  |  | > 30 | > 30 | IC50 at 72 h [8]: > 30 µM |
| CCCCCCCCn1nnc(-c2ccccc2)c1P(=O)(OCCCC)OCCCC [Compound 25, Dibutyl (1-octyl-4-phenyl-1,2,3-triazol-5-yl)phosphonate] | > 30 | > 30 | > 30 | > 30 | > 30 |  |  |  |
| COc1cccc2c1C(=O)c1c(O)c3c(c(O)c1C2=O)C[C@@](O)(C(=O)CO)C[C@@H]3O[C@H]1C[C@H](N)[C@H](O)[C@H](C)O1 [Doxorubicin, reference compound] |  |  |  |  |  | 0.31 ± 0.24 | 5.65 ± 0.81 |  |
| C[C@H]1c2cccc(O)c2C(=O)C2=C(O)[C@]3(O)C(=O)C(C(N)=O)=C(O)[C@@H](N(C)C)[C@@H]3[C@@H](O)[C@@H]21 [Doxycycline, reference compound] | 0.04 ± 0.01 | 0.1 ± 0.02 |  |  |  |  |  |  |
| CNC(C)C1CCC(N)C(OC2C(N)CC(N)C(OC3OCC(C)(O)C(NC)C3O)C2O)O1 (centres unmarked) [Gentamicin, reference compound] | 0.49 ± 0.14 | 4.23 ± 0.99 |  |  |  |  |  |  |
| Dibutyl (1-isooctyl-4-phenyl-1,2,3-triazol-5-yl)phosphonate [Compound 26] |  |  |  |  |  |  |  | IC50 [3]: 29.6 ± 1 µM; IC50 [4]: > 30 µM; IC50 [9]: > 30 µM; IC50 [10]: > 30 µM; IC50 [2, 13]: 26700 ± 1000 nM |
